Data on 39 compounds can be found in article PMC10018608 (Signal Transduction and Targeted Therapy, 2023).

As usually defined, the IC50 is the concentration at which inhibition is half-maximal.

The target in one test is T1, SARS-CoV-2 M^pro (Severe acute respiratory syndrome coronavirus 2, UniProt P0DTD1). As to the kind of experiment: biochemical. To be noted: […]; mean ± SD from three experiments.
Consider `O=C(NCc1nccs1)C(=O)[C@@H](Cc1ccccc1)NC(=O)c1ccccc1F` [3a, (R)-N-(3,4-dioxo-1-phenyl-4-((thiazol-2-ylmethyl)amino)butan-2-yl)-2-fluorobenzamide], for which the IC50 was determined as 264 ± 4 nM. For the compound `O=C(NCc1nccs1)C(=O)[C@@H](Cc1ccccc1)NC(=O)c1cccc(F)c1` [3b], the IC50 turned out to be 478 ± 4.8 nM. Same read-out and setting: as for `O=C(Cc1ccccc1)N[C@H](Cc1ccccc1)C(=O)C(=O)NCc1nccs1` [3d], the figure is 949 ± 39.9 nM. The same measure, in the same setting: as for `O=C(COc1ccccc1)N[C@H](Cc1ccccc1)C(=O)C(=O)NCc1nccs1` [3f], the figure is 880.8 ± 1.2 nM.

`O=C(CNC(=O)c1ccccc1F)N[C@H](Cc1ccccc1)C(=O)C(=O)NCc1nccs1` [3k] returned an IC50 of 998.3 ± 0.2 nM. Take `O=C(CNC(=O)c1cccc(F)c1)N[C@H](Cc1ccccc1)C(=O)C(=O)NCc1nccs1` [3l]: 538.2 ± 4.3 nM corresponded to half-maximal inhibition (IC50).

`O=C(CNC(=O)c1ccc(F)cc1)N[C@H](Cc1ccccc1)C(=O)C(=O)NCc1nccs1` [3m] returned an IC50 of 348.4 ± 3 nM. Still for that read-out and setting: for `O=C(CNC(=O)C1CCC(F)(F)CC1)N[C@H](Cc1ccccc1)C(=O)C(=O)NCc1nccs1` [3n] the value was 50.3 ± 2.6 nM.

Compound `O=C(CNC(=O)C1CCCC(F)(F)C1)N[C@H](Cc1ccccc1)C(=O)C(=O)NCc1nccs1` (stereo partly shown) [3o] came in with an IC50 of 45.8 ± 2.1 nM. Compound `O=C(CNC(=O)C1CCC(F)(F)C1)N[C@H](Cc1ccccc1)C(=O)C(=O)NCc1nccs1` (stereo partly shown) [3p] gave an IC50 of 56.5 ± 5.4 nM. `O=C(CC1CC(F)(F)C1)NCC(=O)N[C@H](Cc1ccccc1)C(=O)C(=O)NCc1nccs1` [3q]: 23.4 ± 2.2 nM corresponded to half-maximal inhibition (IC50). The same measure, in the same setting: as for `C[C@@H](NC(=O)C1CCCC(F)(F)C1)C(=O)N[C@H](Cc1ccccc1)C(=O)C(=O)NCc1nccs1` (stereo partly shown) [3s], the figure is 28.3 ± 0.6 nM; as for `C[C@@H](NC(=O)C1CCC(F)(F)C1)C(=O)N[C@H](Cc1ccccc1)C(=O)C(=O)NCc1nccs1` (stereo partly shown) [3t], 22.5 ± 0.7 nM.

Consider `C[C@@H](NC(=O)CC1CC(F)(F)C1)C(=O)N[C@H](Cc1ccccc1)C(=O)C(=O)NCc1nccs1` [3u], for which the IC50 was determined as 17.2 ± 0.3 nM. With `COC[C@@H](NC(=O)C1CCC(F)(F)CC1)C(=O)N[C@H](Cc1ccccc1)C(=O)C(=O)NCc1nccs1` [3v], the IC50 came to 18.4 ± 1.3 nM. Still for that read-out and setting: as for `COC[C@@H](NC(=O)CC1CC(F)(F)C1)C(=O)N[C@H](Cc1ccccc1)C(=O)C(=O)NCc1nccs1` [3x], the figure is 10.2 ± 0.1 nM.

Staying with this test, now noted: mean ± SD from three experiments.
`O=C(NCc1nccs1)C(=O)[C@@H](Cc1ccccc1)NC(=O)c1ccccc1` [1a, (R)-N-(3,4-dioxo-1-phenyl-4-((thiazol-2-ylmethyl)amino)butan-2-yl)benzamide] had an IC50 of 1300 nM.

`O=C(NCc1cccs1)C(=O)[C@@H](Cc1ccccc1)NC(=O)c1ccccc1` [1b] registered a half-inhibitory concentration (IC50) of 77300 ± 2310 nM. For the compound `O=C(NCc1ccco1)C(=O)[C@@H](Cc1ccccc1)NC(=O)c1ccccc1` [1c], half-maximal inhibition (IC50) was put at 37200 ± 510 nM. On the same count and under the same terms, for `O=C(NCc1ncco1)C(=O)[C@@H](Cc1ccccc1)NC(=O)c1ccccc1` [1d] the value was 51500 ± 940 nM. The same measure, in the same setting: for `O=C(NCc1ccon1)C(=O)[C@@H](Cc1ccccc1)NC(=O)c1ccccc1` [1f] the value was 54740 ± 350 nM. The compound `O=C(NCc1ncon1)C(=O)[C@@H](Cc1ccccc1)NC(=O)c1ccccc1` [1g] displayed an IC50 of 53100 ± 3340 nM. As for `O=C(NCc1ncno1)C(=O)[C@@H](Cc1ccccc1)NC(=O)c1ccccc1` [1h], the IC50 worked out at 62300 ± 2070 nM. On the same count and under the same terms, as for `Cc1csc(CNC(=O)C(=O)[C@@H](Cc2ccccc2)NC(=O)c2ccccc2)n1` [1i], the figure is 40700 ± 1500 nM; as for `O=C(NCc1cnc(Cl)s1)C(=O)[C@@H](Cc1ccccc1)NC(=O)c1ccccc1` [1j], 95200 ± 5990 nM. The compound `O=C(NCc1nccs1)C(=O)[C@@H](Cc1ccccc1F)NC(=O)c1ccccc1` [2a] came in with an IC50 of 3500 ± 230 nM. Same read-out and setting: for `O=C(NCc1nccs1)C(=O)[C@@H](Cc1cccc(F)c1)NC(=O)c1ccccc1` [2b] the value was 2550 ± 20 nM. In turn, `O=C(NCc1nccs1)C(=O)[C@@H](Cc1ccc(F)cc1)NC(=O)c1ccccc1` [2c, (R)-N-(1-(4-fluorophenyl)-3,4-dioxo-4-((thiazol-2-ylmethyl)amino)butan-2-yl)benzamide] registered a 50% inhibitory concentration (IC50) of 1950 ± 290 nM. The same measure, in the same setting: for `O=C(NCc1nccs1)C(=O)[C@@H](Cc1cc(F)c(F)cc1F)NC(=O)c1ccccc1` [2d] the value was 3370 ± 180 nM; for `O=C(NCc1nccs1)C(=O)[C@@H](CC1CCCCC1)NC(=O)c1ccccc1` [2e], 10500 ± 630 nM. The compound `O=C(NCc1nccs1)C(=O)[C@@H](Cc1cccc(Cl)c1)NC(=O)c1ccccc1` [2f] yielded a half-inhibitory concentration (IC50) of 1430 ± 150 nM. Same read-out and setting: for `O=C(NCc1nccs1)C(=O)[C@@H](Cc1ccc(Cl)c(Cl)c1)NC(=O)c1ccccc1` [2g] the value was 2030 ± 70 nM; for `O=C(NCc1nccs1)C(=O)[C@@H](Cc1ccccc1)NC(=O)c1ccc(F)cc1` [3c], 1310 ± 100 nM; for `O=C(CCc1ccccc1)N[C@H](Cc1ccccc1)C(=O)C(=O)NCc1nccs1` [3e], 1220 ± 100 nM. With `O=C(CNC(=O)c1ccccc1)N[C@H](Cc1ccccc1)C(=O)C(=O)NCc1nccs1` [3g], the IC50 was 1860 ± 40 nM. `O=C(CNC(=O)c1cnccn1)N[C@H](Cc1ccccc1)C(=O)C(=O)NCc1nccs1` [3h] returned an IC50 of 3620 ± 270 nM.

With `O=C(CNC(=O)c1ccccn1)N[C@H](Cc1ccccc1)C(=O)C(=O)NCc1nccs1` [3i], the midpoint of inhibition, the IC50, lay at 2240 ± 100 nM. For the compound `O=C(CNC(=O)c1cccnc1)N[C@H](Cc1ccccc1)C(=O)C(=O)NCc1nccs1` [3j], the IC50 came out at 2230 ± 370 nM.

Still in this test, the particulars now being: read-out: IC50 against SARS-CoV-2 M^pro (FRET); mean ± SD from three experiments.
Take `O=C(NCc1cocn1)C(=O)[C@@H](Cc1ccccc1)NC(=O)c1ccccc1` [1e]: the IC50 amounted to 11400 ± 80 nM.

Another test addresses T1, SARS-CoV-2 M^pro. The test can be described thus: Differential scanning fluorimetry (DSF) assay. The class given is binding. The settings on record: mean ± SD (n = 3). The procedure:
M^pro was mixed with tested compounds and 5 × SYPRO Orange dye (Sigma) avoiding from light. The thermal denaturation spectra were run from 20 °C to 95 °C at a gradient of 1.5 °C/min (CFX96, BioRad). Data were analyzed by Boltzmann model to calculate the melt temperature (Tm). The equation ΔTm = Tm(compound) − Tm(DMSO) was used to calculate the thermal shift (ΔTm). The values are presented as mean ± SD (n = 3).
(Differential scanning fluorimetry follows unfolding on heating by fluorescence.)
Consider `O=C(NCc1nccs1)C(=O)[C@@H](Cc1ccccc1)NC(=O)c1ccccc1` [1a, (R)-N-(3,4-dioxo-1-phenyl-4-((thiazol-2-ylmethyl)amino)butan-2-yl)benzamide], for which the “thermal shift (ΔTm)” value is 8.45 ± 0.35 °C.
